Assay results from patent US11957735B2, “Releasable GLP-1 conjugates” (QuiaPEG Pharmaceuticals AB, priority 2018, dated 2024).

Assay: pH-triggered hydrolysis (T1/2) in TRIS buffer at 37° C., HPLC with AZT internal reference
Type: physicochemical
Details: pH 8, hydrolysis of aminouridine carbamate, process of Example 1
Protocol: In the following experiment, the T1/2 at pH 8 is calculated to be approx. 11 h, which translates to 44 h at pH 7.4 (factor 4×). ˜1 mg conjugate was dissolved in a volume of 20% MeCN in water. An appropriate amount of azidothymidine (AZT) was added as an internal reference and the hydrolysis was started by addition of a volume of 0.3 M TRIS buffer solution at pH 8.0. The reaction mixture was then kept at 37° C. 30 μL aliquots were taken at each time point and acidified by addition of 20 μL 1 M AcOH before injection to HPLC.

- half-life: 12 days
SMILES: O=C(NC1C(O)[C@@H](CO)O[C@H]1n1ccc(=O)[nH]c1=O)OCC(c1ccccc1)c1ccccc1 (stereo partly shown) [compound 1]
